Data as given in PMC12571071, “Preventing neuropathy and improving anticancer chemotherapy with a carbazole-based compound” (Science Advances, 2025).
Where two headings read alike, the source gives them in different places.

Assays:
HeLa cells [1] = assay: NAD(P)H autofluorescence imaging in live HeLa cells; format: cell-based, human; settings: 5 and 10 nM FK866, 24-hour incubation
Description: HeLa cells were seeded in four-chamber Labtek plates at 10,000 cells per well. After 48 hours, cells were preincubated with or without 12 μM Carba1 for 2 hours before addition of FK866 (5 and 10 nM). Drugs were added to phenol red–free DMEM medium, supplemented with 10% FBS 1% penicillin/streptomycin. After 24 hours of drug incubation, cells were imaged using a confocal microscope (LSM 710, Zeiss) with a two-photon excitation at 700 nm (Chameleon Vision Laser, Coherent) and a 40×/1.2 water-immersion objective. Detection was performed in single-photon mode using an avalanche photodiode detector (ConfoCor 3). NAD(P)H signal intensity was quantified as the mean signal per cell using ImageJ and normalized to the cell area.

HeLa cells [2] = assay: HeLa cell viability (PrestoBlue) assay, 72 h; format: cell-based, human; settings: HeLa cells; for GI50: Homo sapiens
Description: The human HeLa cell line was tested negative for mycoplasma contamination. HeLa cells were grown in RPMI 1640 medium supplemented with penicillin/streptomycin (100 μg/ml) and 10% FBS and maintained in a humidified incubator at 37°C and 5% CO2.
Cell viability was analyzed using the colorimetric PrestoBlue assay. Cells were seeded in 96-well microplates at a density of 7500 cells per well, allowed to adhere for 24 hours, and treated for 72 hours with either DMSO or drugs at indicated concentrations. PrestoBlue (10 μl) was then added to each well, followed by a 30-min incubation. Fluorescence was measured using a FLUOstar Optima microplate reader (excitation, 544 nm; emission, 580 nm; BMG Labtech).

carbonic anhydrase (CA) = assay: AS-MS binding assay, carbonic anhydrase (negative control); settings: 10 μM compound, 3 μM carbonic anhydrase
Description: To this end, Carba1 or FK866 (positive control of NAMPT binding) was first incubated with NAMPT or carbonic anhydrase (CA; negative control). Protein-ligand complexes were separated from the unbound compounds by size exclusion chromatography (SEC). To quantify the protein-bound fraction, the complexes were then dissociated using reverse-phase chromatography, and the compounds were analyzed and quantified by mass spectrometry. By comparing the amounts of compound before (preSEC) and after (postSEC) SEC in the presence of CA or NAMPT, we assessed their ability to selectively bind to NAMPT.
(§1) AS-MS was used to assess compound binding to NAMPT. AS-MS was performed by Edelris SAS (www.edelris.com/), which has developed the commercial AS-MS service “EDEN platform,” based on ([71]). Conditions consisted of protein (NAMPT and CA) at 3 μM and compounds (Carba1 and FK866) at 10 μM dissolved in corporate buffer.

NAMPT [3] = biological target: T1, NAMPT (Homo sapiens, UniProt P43490); assay: AS-MS binding assay, NAMPT; settings: 10 μM compound, 3 μM NAMPT
Description: To this end, Carba1 or FK866 (positive control of NAMPT binding) was first incubated with NAMPT or carbonic anhydrase (CA; negative control). Protein-ligand complexes were separated from the unbound compounds by size exclusion chromatography (SEC). To quantify the protein-bound fraction, the complexes were then dissociated using reverse-phase chromatography, and the compounds were analyzed and quantified by mass spectrometry.
as §1
Target sequence in this assay (P43490 whole entry, species assumed): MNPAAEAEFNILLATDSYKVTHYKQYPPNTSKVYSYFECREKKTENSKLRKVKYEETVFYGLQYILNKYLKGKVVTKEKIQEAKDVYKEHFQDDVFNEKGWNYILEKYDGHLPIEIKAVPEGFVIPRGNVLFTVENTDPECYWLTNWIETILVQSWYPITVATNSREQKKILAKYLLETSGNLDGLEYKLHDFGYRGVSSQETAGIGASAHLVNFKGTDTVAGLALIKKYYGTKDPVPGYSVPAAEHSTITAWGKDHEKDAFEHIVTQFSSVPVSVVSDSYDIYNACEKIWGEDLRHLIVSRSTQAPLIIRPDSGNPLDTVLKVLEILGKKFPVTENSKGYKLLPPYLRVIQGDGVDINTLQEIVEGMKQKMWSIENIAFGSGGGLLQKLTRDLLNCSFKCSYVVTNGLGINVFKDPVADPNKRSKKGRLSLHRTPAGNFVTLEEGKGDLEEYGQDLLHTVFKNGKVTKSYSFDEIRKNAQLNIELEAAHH

PTX-induced neuropathy = assay: Rat model of PTX-induced peripheral neuropathy (von Frey, serum NfL, IENFD); format: in vivo
Description: Control animals received an equivalent volume of the vehicle (cremophor EL:ethanol, 1:1) diluted 1:4 in 0.9% NaCl.
Carba1 was injected intraperitoneally six times (50 mg/kg) on days 0, 1, 2, 4, 7, and 9, resulting in a cumulative dose of 300 mg/kg (Fig. 2F). For each injection, Carba1 was injected intraperitoneally at 50 mg/kg on days 0, 1, 2, 4, 7, and 9, for a cumulative dose of 300 mg/kg, using a stock solution (150 mg/ml; cremophor EL:ethanol, 1:1) diluted to 50 mg/ml in 0.9% NaCl. Control animals for Carba1 received the same volume of the vehicle [cremophor EL:ethanol (1:1) diluted 1:3 in 0.9% NaCl]. […] To prevent cross-exposure through feces and urine, treatment groups were randomized by cage, with each cage housing three animals.
Tactile allodynia, a common sensory disorder reported in animal models of CIPN ([56]), was assessed using an electronic von Frey test (Bioseb) ([68]). Rats were placed in plastic compartments on a wire floor and allowed to habituate for 15 min. […] The maximum force (in grams) causing withdrawal was recorded automatically. The average of two measurements, not differing by more than 10 g, was used as the nociceptive threshold ([68]). Rats were habituated to the compartments 3 days before the first injection, and the experimenter was blinded to treatment groups.
Blood samples were collected on day 15 in vials with a clot activator, left at R.T. for up to 1 hour before centrifugation at 4100 rpm at 20°C for 10 min. Serum was then collected, aliquoted, and stored at −80°C until analysis. To reduce batch effects, serum samples were randomized on assay plates. NfL concentration was measured in the serum using commercial kits (Simple Plex Ella ProteinSimple, USA; Rat NfL Kit ProteinSimple) ([27]).
Skin samples from both hind paws were fixed in 4% PFA overnight at 4°C, followed by sucrose cryoprotection (10, 20, and 30%) at 4°C overnight. After embedding in tissue freezing medium, the samples were at −80°C. Sections (20 μm) were cut using a cryostat at −17°C, washed with PBS for 5 min, and dried. The sections were blocked in PBS/0.2% Triton X-100/1%BSA for 1 hour and then incubated overnight at R.T. with anti-PGP9.5 antibody (1:400). After washing with PBS, sections were incubated with goat anti-rabbit Alexa Fluor488 secondary antibody for 2 hours, and the nuclei were stained with DAPI. Imaging was performed by acquiring 0.5 μm Z-stacks and exposure times for DAPI and fluorescein isothiocyanate set to 600 ms. Quantification followed the method described by Lauria et al. ([69]).

DRG explants = assay: Mouse embryonic 3D DRG explants: axonal degeneration and myelination (MBP/TUBB3); format: cell-based; settings: 72 h; Carba1 12 μM or PTX 500 nM
Description: Embryonic DRG 3D explants were prepared from E13.5 mouse embryos and seeded at one explant/1.9 cm^2 on acid-treated, Matrigel-coated glass coverslips ([64], [65]). Explants were cultured at 37°C under 5% CO2 and high saturated in humidity. From DIV 0 to DIV 3, cultures were maintained in C-medium supplemented with 10% FBS, 1× GlutaMAX, D-glucose (4 g/liter), 2.5S nerve growth factor (NGF; 50 ng/ml), and 1% penicillin/streptomycin. From DIV 3 to DIV 7, neurobasal medium supplemented with 1× B27, 1× GlutaMAX, D-glucose (4 g/liter), 2.5S NGF (50 ng/ml), and 1% penicillin/streptomycin was used to promote axon development. From DIV 7 onward, differentiation medium [C-medium supplemented with 5 μM forskolin, ascorbic acid (50 μg/ml), and heparin (25 μg/ml)] was used to support glial cell maturation and myelination, with medium changes occurring every 2 days.
DRGs were fixed with 10% formalin for 20 min at R.T., washed with PBS, and permeabilized for 10 min with PBS–0.1% Triton X-100. Blocking was performed using a solution of 3% bovine serum albumin (BSA), 0.1% glycine, and 5% goat preimmune serum in PBS for 2 hours at R.T. DRGs were then washed in PBS and incubated overnight at 4°C with of anti-TUBB3 (1 μg/ml) and anti-MBP (1 μg/ml). After PBS washes, secondary antibodies (goat anti-mouse Alexa Fluor 488, 1:1000, and goat anti-rabbit Alexa Fluor 647, 1:1000) were applied for 1 hour at R.T. Explants were mounted with ProLong Gold antifade reagent with 4′,6-diamidino-2-phenylindole (DAPI).
Images of random fields of DRG explants, fixed in 4% formaldehyde and immunostained for TUBB3 and MBP, were captured with consistent acquisition times across samples, using a Zeiss AxioImager M2 microscope, equipped with a Hamamatsu Orca R2 camera. Image analysis was performed using Fiji software. The images were thresholded using the default global autothreshold method. For each field, MBP^+ segments were counted and normalized to the TUBB3^+ area.

[4] = tested on: HeLa cells xenografted in mice; assay: HeLa tumor xenograft in nude mice; format: in vivo; settings: i.v. every 2 days, PTX 8 mg/kg, Carba1 60 mg/kg alone or with PTX
Description: Five-week-old NMRI nude mice (Janvier Labs) were implanted with 10 × 10^6 HeLa cells (200 μl in PBS) on the right flank. On day 6, the mean tumor volume was 120 ± 4 mm^3. […] Behavior and signs of pain were monitored daily. Body weight and tumor volume were measured two to three times per week using electronic calipers, with tumor volume (in cubic millimeters) calculated as length (millimeters)/2 × width^2 (square millimeters). Tumor growth inhibition was analyzed using GraphPad Prism with one-way analysis of variance (ANOVA) and Dunn’s multiple comparisons test for treatment versus vehicle. Mice were euthanized on day 20, when the vehicle group reached ethical limits. Blood samples were collected by intracardiac puncture in EDTA-coated tubes for differential blood counts and hemograms, outsourced to IDEXX BioAnalytics. For biochemical analysis, blood was collected in heparin-lithium tubes, and plasma was isolated by centrifugation and frozen at −80°C. Plasma was analyzed using MS Scan II (Melet Schloesing) and VET16 reagent rotors to measure markers of renal and hepatic function, metabolism, and nutritional and muscular status. Differential counts, hemograms, and biochemical data were analyzed with GraphPad Prism using Kruskal-Wallis test and Dunn’s multiple comparisons test.

adult mouse DRG neurons = assay: Axonal degeneration index in dissociated adult mouse DRG neurons; settings: DIV 12 neurons, 72 h; Carba1 12 μM, PTX 50 nM, Cis 10 μM, Bort 100 nM
Description: After 4 days in vitro (DIV), at least 30% of medium was changed, and 10 μM AraC (cytosine β-D-arabino furanoside) was added to suppress nonneuronal growth. […] Neurons were fixed with 4% paraformaldehyde (PFA), washed with PBS, permeabilized with PBS–0.01% Triton X-100 for 15 min, and blocked with PBS–10% FBS for 1 hour before being stained overnight at 4°C with neurofilament antibody. Following PBS washes, secondary antibody (goat anti-chicken Alexa Fluor 488) was applied for 2 hours at room temperature (R.T.). Following additional PBS washes, coverslips were mounted with Fluoromount-G.
Images of random fields of dissociated adult DRG neurons, immunostained with antineurofilament or anti-TUBB3 antibodies, were captured using a 20× objective lens (Olympus IX81) and a Sensicam QE monochrome camera (Cooke Corporation). Degeneration masks were generated on the basis of the method described by Gerdts et al. ([66]). Axonal degeneration was quantified by measuring the total axonal area and fragmented axonal area in the same field, using degeneration masks as shown in fig. […] Images were processed in Fiji using global autothresholding, binarization, and the particle analyzer module to detect fragments (20 to 10,000 pixels), as previously described ([17]). The degeneration index was calculated as the ratio of fragmented axonal area to total axonal area.

NAMPT [5] = biological target: T1, NAMPT; assay: NAMPT activity assay (coupled recombinant enzyme kit); format: biochemical; set-up: purchased Abcam ab221819; settings: OD450 at 60 min, normalized by subtraction of DMSO value
Excerpt: We next tested whether Carba1 could activate NAMPT in vitro. To that aim, we used a commercial recombinant human enzyme assay containing four enzymes: NAMPT, NAM nucleotide adenylyltransferase 1 (NMNAT1), alcohol dehydrogenase (ADH), and diaphorase (see Materials and Methods). In the presence of NAM and 5-phosphoribosyl-1-pyrophosphate (PRPP), NAMPT converts NAM to NMN, which is then converted into NAD^+ by NMNAT1, while ADH converts NAD^+ to NADH. Then, into a coupled-reaction, diaphorase converts NADH into NAD^+ and tetrazolium salt WST-1 {4-[3-(4-iodophenyl)-2-(4-nitro-phenyl)-2H-5-tetrazolio]-1,3-benzene sulfonate} to formazan, which can be detected at optical density at 450 nm (OD450). In practice, we proceeded in two steps. First, Carba1 and the different tested compounds were incubated for 15 min with NAMPT, NMNAT1, NAM, and PRPP to allow NAD^+ production. The reaction was then stopped with FK866 before adding ADH and diaphorase to convert the NAD^+ produced to NADH, and absorbance was monitored at regular intervals.
NAMPT activity was measured using the commercial kit, NAMPT Activity Assay, according to the manufacturer’s instructions. […] A mixture of water-soluble tetrazolium salts (WST-1), ADH, diaphorase, and ethanol was added and the absorbance (OD450) measured for 90 min using the microplate reader ClarioSTAR (BMG Labtech).
Target sequence in this assay (P43490 whole entry): as the sequence (P43490 whole entry, species assumed) above

[6] = rat serum, day 15, outliers removed

O=C(/C=C/c1cccnc1)NCCCCC1CCN(C(=O)c2ccccc2)CC1 [FK866, reference compound]
reduction of NAD(P)H production (HeLa cells [1]): ~ 20% | GI50 (HeLa cells [2]; read-out: GI50 of FK866 alone): 2.4 ± 0.09 nM | binding to CA (AS-MS) (carbonic anhydrase (CA)): neither FK866 nor Carba1 was found to bind CA | binding to NAMPT (AS-MS) (NAMPT [3]): recovered in the fraction containing NAMPT

CC(=O)O[C@H]1C(=O)[C@@]2(C)[C@H]([C@H](OC(=O)c3ccccc3)[C@]3(O)C[C@H](OC(=O)[C@H](O)[C@@H](NC(=O)c4ccccc4)c4ccccc4)C(C)=C1C3(C)C)[C@]1(OC(C)=O)CO[C@@H]1C[C@@H]2O [PTX, paclitaxel, reference compound]
IENFD, mean (PTX-induced neuropathy; rat hind paw biopsies, day 15): 13.43 number/mm | IENFD, median (PTX-induced neuropathy; rat hind paw biopsies, day 15): 13.62 number/mm | NfL, mean (PTX-induced neuropathy; [6]): 96.00 pg/mL | NfL, median (PTX-induced neuropathy; [6]): 82.50 pg/mL | tactile allodynia (paw withdrawal threshold, electronic von Frey), agent alone (PTX-induced neuropathy; rat, i.p., PTX 5 mg/kg x4 or Carba1 50 mg/kg x6): developed a tactile allodynia | reduction of IENFD, agent alone (PTX-induced neuropathy; rat, vs controls): 30% | MBP staining (axonal myelination), agent alone (DRG explants): significant reduction in MBP staining | GI50 (HeLa cells [2]; 72 h, PrestoBlue, drug applied alone, read-out: GI50, drug alone): 4.2 ± 0.4 nM | tumor size [4]: markedly reduced tumor size | axonal fragmentation / degeneration, agent alone (adult mouse DRG neurons): induced robust axonal degeneration

OC(CNc1ccccc1)Cn1c2ccc(Br)cc2c2cc(Br)ccc21 (stereo not shown) [Compound P7C3, reference compound]
relief of FK866 cytotoxicity (HeLa cells [2]; coadministration with FK866): unable to counteract the toxic effect of FK866 | activation of NAMPT in vitro (NAMPT [5]): No significant effect
